The values below come from ChEMBL document CHEMBL5143678, “Identification of Antithrombotic Natural Products Targeting the Major Substrate Binding Pocket of Protein Disulfide Isomerase” (J Nat Prod, 2022).

Each structure is given as a SMILES string. The source made the active and inactive calls. The calls are words filed in the database; no cut-off is given here.

Data set [1] addresses T1, Protein disulfide-isomerase (Homo sapiens, UniProt P07237). The data set can be described thus: Binding affinity to recombinant His-tagged full length human PDI-b' x domain substrate binding pocket expressed in Escherichia coli BL21 (DE3) cells assessed as decrease in fluorescence intensity at 100 uM incubated for 10 mins by tryptophan fluorescence based assay.
Target sequence in this assay (P07237 18-508 limits assumed): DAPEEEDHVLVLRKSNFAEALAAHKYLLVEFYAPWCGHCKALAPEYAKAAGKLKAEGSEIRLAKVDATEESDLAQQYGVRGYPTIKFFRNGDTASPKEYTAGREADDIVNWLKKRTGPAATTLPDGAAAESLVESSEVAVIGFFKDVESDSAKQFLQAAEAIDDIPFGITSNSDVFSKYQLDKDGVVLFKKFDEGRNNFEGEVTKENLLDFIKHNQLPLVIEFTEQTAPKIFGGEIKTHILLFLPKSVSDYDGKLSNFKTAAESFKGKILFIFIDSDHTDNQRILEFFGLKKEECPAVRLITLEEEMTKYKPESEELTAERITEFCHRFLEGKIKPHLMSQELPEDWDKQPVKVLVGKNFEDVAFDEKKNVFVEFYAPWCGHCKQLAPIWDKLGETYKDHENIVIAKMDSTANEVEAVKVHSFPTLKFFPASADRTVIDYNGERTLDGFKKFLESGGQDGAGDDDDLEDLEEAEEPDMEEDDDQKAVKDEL
Data set [2] deals with T1, Protein disulfide-isomerase. The data set can be described thus: Binding affinity to recombinant His-tagged full length human PDI-b' x domain substrate binding pocket expressed in Escherichia coli BL21 (DE3) cells assessed as inhibition constant at 100 uM incubated for 10 mins by tryptophan fluorescence based assay.
Target sequence in this assay (P07237 whole entry): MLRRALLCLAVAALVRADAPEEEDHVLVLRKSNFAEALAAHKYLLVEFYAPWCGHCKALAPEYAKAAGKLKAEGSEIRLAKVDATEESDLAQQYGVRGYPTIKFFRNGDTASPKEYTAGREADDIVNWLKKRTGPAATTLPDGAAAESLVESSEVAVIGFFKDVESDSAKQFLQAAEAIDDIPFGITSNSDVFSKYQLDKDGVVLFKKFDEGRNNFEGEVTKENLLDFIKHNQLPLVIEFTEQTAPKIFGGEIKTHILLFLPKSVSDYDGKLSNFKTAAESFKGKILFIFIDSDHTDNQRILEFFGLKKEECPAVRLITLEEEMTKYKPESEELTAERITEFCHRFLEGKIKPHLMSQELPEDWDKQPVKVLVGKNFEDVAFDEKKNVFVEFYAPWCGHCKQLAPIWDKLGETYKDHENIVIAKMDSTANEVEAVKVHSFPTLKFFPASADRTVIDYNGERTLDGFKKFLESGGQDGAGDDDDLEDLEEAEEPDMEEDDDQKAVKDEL
Data set [3] has the same target. The data set can be described thus: Inhibition of recombinant His-tagged full length human PDI reductase activity assessed as inhibition of PDI/DTT-mediated cleavage of disulfide bond in insulin at 100 uM incubated for 40 mins by spectrophotometric analysis.
Target sequence in this assay (P07237 18-508 limits assumed): as the sequence (P07237 18-508 limits assumed) above
For data set [4] the target is unchanged. The data set can be described thus: Inhibition of recombinant His-tagged full length human PDI reductase activity assessed as inhibition of PDI/DTT-mediated cleavage of disulfide bond in insulin in the presence of DTT incubated for 40 mins by spectrophotometric analysis. Conditions: dose 100-200 µM, DDE = dose-dependent effect.
Target sequence in this assay (P07237 18-508 limits assumed): as above
A short description of data set [5]: Toxicity in anesthetized ICR mouse model of electrically-induced carotid artery thrombosis assessed as thrombus formation by measuring blood loss in tail at 30 mg/kg, iv. The following applies: in vivo. Type of data set: organism-based.
The target of data set [6] is T2, Protein disulfide-isomerase A3 (Homo sapiens) (UniProt P30101).
T2 sequence (whole entry): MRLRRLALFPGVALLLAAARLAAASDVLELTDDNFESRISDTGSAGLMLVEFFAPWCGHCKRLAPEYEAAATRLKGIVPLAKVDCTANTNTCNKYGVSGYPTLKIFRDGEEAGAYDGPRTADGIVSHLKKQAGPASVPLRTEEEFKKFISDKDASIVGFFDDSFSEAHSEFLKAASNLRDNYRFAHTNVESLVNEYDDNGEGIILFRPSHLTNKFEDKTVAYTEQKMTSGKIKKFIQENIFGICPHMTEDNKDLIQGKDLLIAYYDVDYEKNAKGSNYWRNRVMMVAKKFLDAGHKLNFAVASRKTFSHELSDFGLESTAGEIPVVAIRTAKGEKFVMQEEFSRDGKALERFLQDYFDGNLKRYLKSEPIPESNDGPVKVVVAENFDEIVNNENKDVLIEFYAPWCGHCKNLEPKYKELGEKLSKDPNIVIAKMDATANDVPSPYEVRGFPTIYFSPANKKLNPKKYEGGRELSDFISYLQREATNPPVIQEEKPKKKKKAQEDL
The data set can be described thus: Inhibition of ERp57 (unknown origin) reductase activity assessed as inhibition of PDI/DTT-mediated cleavage of disulfide bond in insulin in the presence of DTT incubated for 40 mins by spectrophotometric analysis. The following applies: dose 100-200 µM, DDE = dose-dependent effect.

The subject of data set [7] is Mus musculus. The data set can be described thus: Antithrombotic activity in anesthetized ICR mouse model of electrically-induced carotid artery thrombosis assessed as inhibition of thrombosis formation by measuring increase in bleeding time at 30 mg/kg, iv. In kind it is functional, organism-based.
In data set [8] the target is T3, Protein disulfide-isomerase A6 (Homo sapiens) (UniProt Q15084).
T3 sequence (whole entry): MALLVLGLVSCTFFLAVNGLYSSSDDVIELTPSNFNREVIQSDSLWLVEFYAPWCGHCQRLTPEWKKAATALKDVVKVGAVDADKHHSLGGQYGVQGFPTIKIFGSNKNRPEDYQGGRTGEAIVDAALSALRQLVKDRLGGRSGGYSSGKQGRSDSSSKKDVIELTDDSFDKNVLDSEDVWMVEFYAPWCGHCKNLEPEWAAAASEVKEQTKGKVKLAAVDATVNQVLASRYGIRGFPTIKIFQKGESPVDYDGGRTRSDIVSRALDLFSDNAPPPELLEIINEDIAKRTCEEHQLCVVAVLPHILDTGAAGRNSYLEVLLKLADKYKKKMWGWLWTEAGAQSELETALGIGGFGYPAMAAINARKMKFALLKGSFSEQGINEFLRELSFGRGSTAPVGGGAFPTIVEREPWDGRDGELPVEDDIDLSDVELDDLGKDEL
The data set can be described thus: Inhibition of ERp5 (unknown origin) reductase activity assessed as inhibition of PDI/DTT-mediated cleavage of disulfide bond in insulin in the presence of DTT incubated for 40 mins by spectrophotometric analysis. The following applies: dose 100-200 µM, DDE = dose-dependent effect.

The subject of data set [9] is Mus musculus. The data set can be described thus: Antithrombotic activity in anesthetized ICR mouse model of electrically-induced carotid artery thrombosis assessed as delay in occlusion time at 30 mg/kg, iv. In kind it is functional, organism-based.
Data set [10] concerns the target T4, Protein disulfide-isomerase A4 (Homo sapiens) (UniProt P13667).
T4 sequence (whole entry): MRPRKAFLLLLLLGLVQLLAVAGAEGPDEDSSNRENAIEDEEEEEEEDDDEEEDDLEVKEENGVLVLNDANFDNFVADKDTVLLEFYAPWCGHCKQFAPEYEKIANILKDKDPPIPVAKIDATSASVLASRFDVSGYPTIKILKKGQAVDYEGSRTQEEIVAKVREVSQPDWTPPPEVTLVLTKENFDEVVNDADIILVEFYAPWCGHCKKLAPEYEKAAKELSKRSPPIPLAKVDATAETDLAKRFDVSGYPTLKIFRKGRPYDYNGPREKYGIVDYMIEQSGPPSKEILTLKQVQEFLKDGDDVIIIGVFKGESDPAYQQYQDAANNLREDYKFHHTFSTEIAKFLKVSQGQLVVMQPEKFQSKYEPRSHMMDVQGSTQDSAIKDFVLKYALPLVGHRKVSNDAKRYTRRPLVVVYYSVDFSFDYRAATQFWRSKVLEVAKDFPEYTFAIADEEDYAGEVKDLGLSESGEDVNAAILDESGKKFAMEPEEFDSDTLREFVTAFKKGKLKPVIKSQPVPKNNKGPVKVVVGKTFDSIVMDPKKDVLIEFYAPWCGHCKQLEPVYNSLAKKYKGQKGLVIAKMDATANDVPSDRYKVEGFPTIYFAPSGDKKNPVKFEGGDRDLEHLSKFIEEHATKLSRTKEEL
The data set can be described thus: Inhibition of ERp72 (unknown origin) reductase activity assessed as inhibition of PDI/DTT-mediated cleavage of disulfide bond in insulin in the presence of DTT incubated for 40 mins by spectrophotometric analysis. Conditions: dose 100-200 µM, DDE = dose-dependent effect.

For the molecule `O=C(/C=C/c1ccc(O)cc1)c1ccc(O)cc1O` [ISOLIQUIRITIGENIN], the result in [1] was Active. In addition, the Ki in [2] was found to be 36.1 µM. Further, in [3], the inhibition entry is “Active”.
With `O=c1c(O)c(-c2ccccc2)oc2cc(O)cc(O)c12` [GALANGIN], the outcome (in data set [1]; in the data set with Mus musculus [7]; with Mus musculus [9]) was Active. In data set [2], the Ki amounted to 5.9 µM. Also, the inhibition result in [4], in [6], in [8] and in data set [10] was “Dde” in each case. In data set [5], the Activity result is recorded as “Non-Toxic”. Besides, the inhibition entry in [3] was “Active”.
Regarding `COc1cc(C=O)ccc1OC(C)=O`, the result in data set [1] was Active. In addition, the Ki in data set [2] amounted to 309 µM. The inhibition entry in [3] was “Active”.
On to `NC(CO)C(=O)NNCc1ccc(O)c(O)c1O` (centres undefined), for which, in data set [1], the outcome was Active.
The same measure, in the same setting: the result for `O=C(Nc1ccccc1)c1ccccc1O` reads “Active”; that for `O=c1c(O)c(-c2ccccc2)oc2ccccc12`, “Active”.
